How the values were obtained:
PsrA (His6-PsrA) = PsrA (His6-PsrA) (Pseudomonas aeruginosa, UniProt Q9HZJ9); assay: EMSA, inhibition of PsrA binding to promoter DNA; conditions: 100 ng PpsrA, PrpoS or PexsC DNA; 0.01% Brij-58; inhibition seen from 5 µM
crystal structure = molecular target: the molecule itself; assay: crystal structure

Molecule: CCCCCCCC/C=C\CCCCCCCC(=O)O [oleate]
- complete inhibition of DNA binding (PsrA (His6-PsrA)): 50 µM

B1: PsrA (PA3006) of Pseudomonas aeruginosa (natural protein)
chain: MAQSETVERILDAAEQLFAEKGFAETSLRLITSKAGVNLAAVNYHFGSKKALIQAVFSRFLGPFCASLEKELDRRQAKPEAQHATLEDLLHLLVSQAMAVKPRSGNDLSIFMRLLGLAFSQSQGHLRKYLEEVYGKVFRRYMLLVNEAAPKLPPIELFWRVHFMLGAAAFSMSGIKALRAMAETDFGVNTSTEQVMHLMVPFFAAGMRAESGIDDPLLAGAQLRPRNKTPAKA
modifications: selenomethionine in place of methionine
- binding result (crystal structure): binds

— article PMC2759274 (Molecular microbiology, 2009)
